The source of these data is US9974775B2, “Substituted imidazoles as N-type calcium channel blockers” (Janssen Pharmaceutica NV, priority 2013, dated 2018).

Like-named read-outs stand apart in the source and are kept apart here.

The target in test [1] is T1, human N-type Ca channel (Homo sapiens, UniProt Q00975). Description: Calcium influx assay (FDSS). More on the design: host or cells: HEK 293. The note with it: HEK 293 cells, depolarized with 100 mM KCl. It counts as cell-based. On the procedure:
All cell culture reagents were procured from HyClone and other reagents were from Fisher. Recombinant HEK 293 cells expressing human N-type Ca channel (Millipore) were maintained in DMEM F12 containing 10% FBS and selection antibiotics at 37° C. in 5% CO2.
Cells were incubated at 30° C. in 5% CO2 overnight. The medium was removed and cells were loaded with Fluo8 dye (AAT Bioquest) at 37° C. and 30° C., 30 min each in darkness. Cells were washed four times with wash buffer (16 mM Herep pH 7.2, 2 mM CaCl2, 1 mM MgCl2, 5 mM glucose, 140 mM choline chloride and 2 mM KCl) leaving 15 μL buffer after the last wash. Compounds of Formula (I), serially diluted, were added to the cell plate. The plates were incubated in darkness for 15 min. Cells were depolarized with 100 mM KCl and Ca influx was measured.

Test [2] has as its target T1, human N-type Ca channel. Description: Measurement of electrophysiological response (QPatch).
Protocol: The recombinant cell line described above was used in the measurement of electrophysiological properties with QPatch (Sophion). […] Prior to the experiment, the flasks were moved to 30° C. and incubated for 48-72 hrs. On the day of assaying, cells were detached and harvested. The cell pellet was re-suspended in SMF4HEK (HyClone)/25 mM HEPS at 2-5 million/mL and placed on the QStirrer of the QPatch for 30-60 min prior to the start of the assay. […] Microtiter-Plate/Reference Buffer contained 140 mM TEA-Cl, 10 mM BaCl2, 0.8 mM MgCl2, 10 mM HEPES pH˜7.4 adjusted with TEA-OH/HCl, and ˜300 mOsm. Cells were transferred to a QPatch 48 plate and gigaseal was formed. The plate was perfused with intracellular and extracellular buffer. […] In brief, cells were depolarized from resting potential of −80 mV to +20 mV and current was recorded. Data was plotted as percent inhibition vs concentration of the compound and IC50 values were generated using Graphpad Prism non-linear regression analysis.
The mark [3] stands for this setting: read-out: Qpatch Pulse = 1 (percent inhibition).
Setting [4] is: concentration range 0.01-0.3 μM.
[5] abbreviates: N Type IC50 Data Qpatch Pulse = 1, Pulse = 1, concentration range 0.3-10 μM.
The mark [6] stands for this setting: N Type IC50 Data Qpatch Pulse = 15, Pulse = 15, concentration range 0.3-10 μM.

T1 sequence (Q00975 whole entry): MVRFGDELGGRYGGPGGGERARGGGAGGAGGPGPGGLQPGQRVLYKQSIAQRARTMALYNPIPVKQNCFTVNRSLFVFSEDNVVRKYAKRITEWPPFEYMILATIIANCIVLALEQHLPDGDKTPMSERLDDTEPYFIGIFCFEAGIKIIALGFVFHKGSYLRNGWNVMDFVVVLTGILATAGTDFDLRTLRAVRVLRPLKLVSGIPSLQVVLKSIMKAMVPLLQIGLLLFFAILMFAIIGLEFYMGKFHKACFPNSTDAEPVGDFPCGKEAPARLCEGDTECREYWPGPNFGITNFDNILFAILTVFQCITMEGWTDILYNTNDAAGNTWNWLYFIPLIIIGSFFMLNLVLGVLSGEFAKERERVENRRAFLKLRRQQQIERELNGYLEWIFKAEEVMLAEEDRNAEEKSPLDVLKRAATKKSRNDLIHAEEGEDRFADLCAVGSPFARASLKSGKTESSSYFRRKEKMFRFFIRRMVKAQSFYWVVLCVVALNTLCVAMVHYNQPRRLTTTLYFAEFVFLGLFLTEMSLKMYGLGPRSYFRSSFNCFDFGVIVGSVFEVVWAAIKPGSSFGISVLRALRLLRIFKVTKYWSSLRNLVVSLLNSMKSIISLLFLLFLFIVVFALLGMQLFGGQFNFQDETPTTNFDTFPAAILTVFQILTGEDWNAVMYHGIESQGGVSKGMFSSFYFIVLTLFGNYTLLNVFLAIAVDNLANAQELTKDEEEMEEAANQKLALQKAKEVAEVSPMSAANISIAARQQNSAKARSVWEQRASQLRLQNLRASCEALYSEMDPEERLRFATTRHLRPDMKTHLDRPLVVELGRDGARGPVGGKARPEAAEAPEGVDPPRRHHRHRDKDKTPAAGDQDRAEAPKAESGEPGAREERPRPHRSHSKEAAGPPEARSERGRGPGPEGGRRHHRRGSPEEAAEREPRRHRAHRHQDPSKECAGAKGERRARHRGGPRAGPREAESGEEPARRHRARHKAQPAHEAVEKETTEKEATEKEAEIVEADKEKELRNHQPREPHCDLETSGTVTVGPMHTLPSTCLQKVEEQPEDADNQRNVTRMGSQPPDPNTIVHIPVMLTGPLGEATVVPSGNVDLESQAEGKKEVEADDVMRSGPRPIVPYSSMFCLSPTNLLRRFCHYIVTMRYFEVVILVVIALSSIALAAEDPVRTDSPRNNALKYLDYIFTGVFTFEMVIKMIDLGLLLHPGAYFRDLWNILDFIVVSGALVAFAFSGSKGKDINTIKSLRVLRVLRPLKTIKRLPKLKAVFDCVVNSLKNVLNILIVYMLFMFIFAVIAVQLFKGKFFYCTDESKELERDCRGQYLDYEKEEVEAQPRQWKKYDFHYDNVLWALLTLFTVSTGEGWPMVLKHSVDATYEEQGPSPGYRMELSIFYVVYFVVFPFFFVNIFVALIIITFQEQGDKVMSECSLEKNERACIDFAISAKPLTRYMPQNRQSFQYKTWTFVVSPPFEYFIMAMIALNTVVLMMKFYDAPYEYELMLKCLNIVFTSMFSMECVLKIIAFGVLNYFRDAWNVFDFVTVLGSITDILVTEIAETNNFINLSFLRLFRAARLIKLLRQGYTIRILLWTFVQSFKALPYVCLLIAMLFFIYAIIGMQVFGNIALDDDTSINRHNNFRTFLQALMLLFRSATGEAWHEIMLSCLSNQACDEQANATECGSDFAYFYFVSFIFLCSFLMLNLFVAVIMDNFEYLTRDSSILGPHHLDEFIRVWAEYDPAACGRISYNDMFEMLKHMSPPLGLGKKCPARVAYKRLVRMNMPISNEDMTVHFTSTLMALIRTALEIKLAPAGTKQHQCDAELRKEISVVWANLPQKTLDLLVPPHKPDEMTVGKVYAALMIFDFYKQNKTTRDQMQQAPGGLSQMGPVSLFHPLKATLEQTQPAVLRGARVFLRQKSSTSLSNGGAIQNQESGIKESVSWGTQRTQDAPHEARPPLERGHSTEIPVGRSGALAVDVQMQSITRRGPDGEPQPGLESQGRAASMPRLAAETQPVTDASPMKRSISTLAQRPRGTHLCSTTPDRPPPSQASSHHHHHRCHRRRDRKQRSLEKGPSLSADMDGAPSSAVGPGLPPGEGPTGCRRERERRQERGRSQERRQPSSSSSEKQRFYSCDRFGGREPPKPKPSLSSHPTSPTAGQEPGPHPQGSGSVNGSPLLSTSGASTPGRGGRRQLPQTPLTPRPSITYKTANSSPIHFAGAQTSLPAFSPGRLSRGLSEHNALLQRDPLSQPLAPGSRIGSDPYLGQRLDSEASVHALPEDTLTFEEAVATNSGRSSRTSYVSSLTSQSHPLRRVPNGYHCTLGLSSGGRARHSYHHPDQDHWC
T1 sequence (P54284 whole entry partner): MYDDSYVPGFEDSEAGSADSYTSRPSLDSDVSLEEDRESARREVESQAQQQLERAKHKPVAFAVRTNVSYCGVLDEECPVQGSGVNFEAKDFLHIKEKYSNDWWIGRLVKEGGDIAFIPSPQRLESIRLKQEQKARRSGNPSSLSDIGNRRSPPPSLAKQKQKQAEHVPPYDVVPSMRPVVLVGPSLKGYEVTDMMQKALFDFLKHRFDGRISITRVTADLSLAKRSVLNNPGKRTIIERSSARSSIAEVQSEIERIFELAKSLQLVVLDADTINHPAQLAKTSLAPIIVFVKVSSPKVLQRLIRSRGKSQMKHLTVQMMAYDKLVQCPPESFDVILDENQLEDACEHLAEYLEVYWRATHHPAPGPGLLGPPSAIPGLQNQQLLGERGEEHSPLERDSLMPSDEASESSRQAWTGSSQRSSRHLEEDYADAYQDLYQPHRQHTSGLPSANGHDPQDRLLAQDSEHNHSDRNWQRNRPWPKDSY
T1 sequence (P54289 25-956 partner limits assumed): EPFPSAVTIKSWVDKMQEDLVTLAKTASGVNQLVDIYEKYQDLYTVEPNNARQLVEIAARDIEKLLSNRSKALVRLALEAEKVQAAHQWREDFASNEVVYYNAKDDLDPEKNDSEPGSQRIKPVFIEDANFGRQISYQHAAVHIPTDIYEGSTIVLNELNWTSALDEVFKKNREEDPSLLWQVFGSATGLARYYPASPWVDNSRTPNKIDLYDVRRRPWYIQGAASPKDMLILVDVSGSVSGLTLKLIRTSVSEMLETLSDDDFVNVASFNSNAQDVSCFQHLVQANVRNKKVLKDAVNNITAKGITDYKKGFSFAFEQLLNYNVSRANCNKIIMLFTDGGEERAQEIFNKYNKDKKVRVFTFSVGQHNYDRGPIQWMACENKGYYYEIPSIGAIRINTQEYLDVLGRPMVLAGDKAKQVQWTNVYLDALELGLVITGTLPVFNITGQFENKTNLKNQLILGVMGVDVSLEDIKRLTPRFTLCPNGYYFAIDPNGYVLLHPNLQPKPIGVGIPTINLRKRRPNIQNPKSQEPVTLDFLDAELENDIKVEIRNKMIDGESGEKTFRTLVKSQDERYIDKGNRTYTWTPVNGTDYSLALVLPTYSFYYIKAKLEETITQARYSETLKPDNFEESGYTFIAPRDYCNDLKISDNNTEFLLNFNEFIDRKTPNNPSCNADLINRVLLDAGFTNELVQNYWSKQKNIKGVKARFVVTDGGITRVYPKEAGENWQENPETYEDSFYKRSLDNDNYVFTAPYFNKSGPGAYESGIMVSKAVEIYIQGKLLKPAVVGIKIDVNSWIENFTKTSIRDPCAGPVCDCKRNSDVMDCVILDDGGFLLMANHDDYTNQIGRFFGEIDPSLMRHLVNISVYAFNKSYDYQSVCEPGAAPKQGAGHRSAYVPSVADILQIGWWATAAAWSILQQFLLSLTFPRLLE
T1 sequence (P54289 957-1103 partner limits assumed): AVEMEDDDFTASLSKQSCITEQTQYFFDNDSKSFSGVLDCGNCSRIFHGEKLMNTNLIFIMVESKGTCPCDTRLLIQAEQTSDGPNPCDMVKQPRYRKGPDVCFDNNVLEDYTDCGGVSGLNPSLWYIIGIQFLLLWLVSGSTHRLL

A word on the IC50: it is the midpoint of a concentration-inhibition curve. `CC1(C)CC(c2cn(-c3ccc(C#N)cc3)c(C3CC3)n2)CC(C)(C)O1` [Cpd 57, 4-[2-Cyclopropyl-4-(2,2,6,6-tetramethyltetrahydro-2H-pyran-4-yl)-1H-imidazol-1-yl]benzonitrile]: the half-maximal inhibitory concentration (IC50) at human N-type Ca channel [1] is at least 10 µM. `COc1ncccc1-c1nc(C2CC(C)(C)OC(C)(C)C2)cn1-c1cc(F)cc(F)c1` [Cpd 72, 3-(1-(3,5-difluorophenyl)-4-(2,2,6,6-tetramethyltetrahydro-2H-pyran-4-yl)-1H-imidazol-2-yl)-2-methoxypyridine]: on human N-type Ca channel [2] (concentration range 0.01-1 μM), the “N Type IC50 Data Qpatch Pulse = 1” value is given as “poor fit” and the “N Type IC50 Data Qpatch Pulse = 15” value was “poor fit”. For `COc1ncccc1-c1nc(C2CC(C)(C)OC(C)(C)C2)cn1-c1cc(F)cc(C#N)c1` [Cpd 73, 3-fluoro-5-(2-(2-methoxypyridin-3-yl)-4-(2,2,6,6-tetramethyltetrahydro-2H-pyran-4-yl)-1H-imidazol-1-yl)benzonitrile], at human N-type Ca channel [2] (concentration range 0.01-1 μM), the “N Type IC50 Data Qpatch Pulse = 1” value is listed as “poor fit” and the “N Type IC50 Data Qpatch Pulse = 15” value was “poor fit”. Broadly, the inhibition is the share of the control response that was lost under treatment. With `COc1ccccc1-c1nc(C2CC(C)(C)OC(C)(C)C2)cn1-c1ccc(F)c(C#N)c1` [Cpd 74, 2-Fluoro-5-[2-(2-methoxy-phenyl)-4-(2,2,6,6-tetramethyl-tetrahydro-pyran-4-yl)-imidazol-1-yl]-benzonitrile], at human N-type Ca channel [1], the concentration for half-maximal inhibition (IC50) came to 0.488 µM. Besides, the inhibition at 10 µM at human N-type Ca channel [2] (setting [3]) amounted to 36%; on human N-type Ca channel [2] (read-out: Qpatch Pulse = 15 (percent inhibition)), 44%. Regarding `COc1cc(-n2cc(C3CC(C)(C)OC(C)(C)C3)nc2-c2cccnc2OC)ccc1C#N` [Cpd 77, 2-Methoxy-4-[2-(2-methoxypyridin-3-yl)-4-(2,2,6,6-tetramethyltetrahydro-2H-pyran-4-yl)-1H-imidazol-1-yl]benzonitrile], the IC50 at human N-type Ca channel [1] is at least 10 µM. For `COc1ncccc1-c1nc(C2CC(C)(C)OC(C)(C)C2)cn1-c1ccc(C#N)c(Cl)c1` [Cpd 78, 2-Chloro-4-[2-(2-methoxypyridin-3-yl)-4-(2,2,6,6-tetramethyltetrahydro-2H-pyran-4-yl)-1H-imidazol-1-yl]benzonitrile], the “Qpatch Pulse = 1 (percent inhibition)” value on human N-type Ca channel [2] (concentration range 0.01-1 μM) was 58%. As to `COc1ncccc1-c1nc(C2CC(C)(C)OC(C)(C)C2)cn1-c1cc(F)c(C#N)c(F)c1` [Cpd 82, 2,6-difluoro-4-(2-(2-methoxypyridin-3-yl)-4-(2,2,6,6-tetramethyltetrahydro-2H-pyran-4-yl)-1H-imidazol-1-yl)benzonitrile], on human N-type Ca channel [2] (setting [4]), the “N Type IC50 Data Qpatch Pulse = 1” value is on record as “poor fit” and the “N Type IC50 Data Qpatch Pulse = 15” value is reported as “poor fit”. Take `COc1ccccc1-c1nc(C2CC(C)(C)OC(C)(C)C2)cn1-c1c(F)cc(C#N)cc1F` [Cpd 83, 3,5-difluoro-4-(2-(2-methoxyphenyl)-4-(2,2,6,6-tetramethyltetrahydro-2H-pyran-4-yl)-1H-imidazol-1-yl)benzonitrile]: on human N-type Ca channel [2] (setting [4]), the “N Type IC50 Data Qpatch Pulse = 1” value is recorded as “poor fit” and the “N Type IC50 Data Qpatch Pulse = 15” value is reported as “poor fit”.

Turning to `COc1ncccc1-c1nc(C2CC(C)(C)OC(C)(C)C2)cn1-c1ccc(Cl)c(C#N)c1` [Cpd 84, 2-Chloro-5-[2-(2-methoxypyridin-3-yl)-4-(2,2,6,6-tetramethyltetrahydro-2H-pyran-4-yl)-1H-imidazol-1-yl]benzonitrile], the “Qpatch Pulse = 1 (percent inhibition)” value on human N-type Ca channel [2] (concentration range 0.01-1 μM) was 39%. Same read-out and setting: with `COc1ccc(-n2cc(C3CC(C)(C)OC(C)(C)C3)nc2-c2cccnc2OC)cc1C#N` [Cpd 85, 2-Methoxy-5-[2-(2-methoxypyridin-3-yl)-4-(2,2,6,6-tetramethyltetrahydro-2H-pyran-4-yl)-1H-imidazol-1-yl]benzonitrile] the figure was 45%; with `COc1ncncc1-c1nc(C2CC(C)(C)OC(C)(C)C2)cn1-c1ccc(C#N)cc1` [Cpd 86, 4-[2-(4-Methoxypyrimidin-5-yl)-4-(2,2,6,6-tetramethyltetrahydro-2H-pyran-4-yl)-1H-imidazol-1-yl]benzonitrile], 28%. On to `COc1nccnc1-c1nc(C2CC(C)(C)OC(C)(C)C2)cn1-c1ccc(C#N)cc1` [Cpd 87, 4-[2-(3-Methoxypyrazin-2-yl)-4-(2,2,6,6-tetramethyltetrahydro-2H-pyran-4-yl)-1H-imidazol-1-yl]benzonitrile], for which, at human N-type Ca channel [2] (setting [4]), the “N Type IC50 Data Qpatch Pulse = 1” value is “poor fit” and the “N Type IC50 Data Qpatch Pulse = 15” value is reported as “poor fit”. On to `COc1nccnc1-c1nc(C2CC(C)(C)OC(C)(C)C2)cn1-c1ccc(C#N)c(F)c1` [Cpd 88, 2-fluoro-4-(2-(3-methoxypyrazin-2-yl)-4-(2,2,6,6-tetramethyltetrahydro-2H-pyran-4-yl)-1H-imidazol-1-yl)benzonitrile], for which the “N Type IC50 Data Qpatch Pulse = 15” value on human N-type Ca channel [2] (setting [4]) was “poor fit”. Same read-out and setting: then `CCOc1ncccc1-c1nc(C2CC(C)(C)OC(C)(C)C2)cn1-c1ccc(C#N)c(F)c1` [Cpd 89, 4-(2-(2-ethoxypyridin-3-yl)-4-(2,2,6,6-tetramethyltetrahydro-2H-pyran-4-yl)-1H-imidazol-1-yl)-2-fluorobenzonitrile], with “poor fit”.

For `COc1ccccc1-c1nc(C2CC(C)(C)OC(C)(C)C2)c(C)n1-c1ccc(Cl)cc1` [Cpd 90, 1-(4-chlorophenyl)-2-(2-methoxyphenyl)-5-methyl-4-(2,2,6,6-tetramethyltetrahydro-2H-pyran-4-yl)-1H-imidazole], on human N-type Ca channel [2] (setting [4]), the “N Type IC50 Data Qpatch Pulse = 1” value was “poor fit” and the “N Type IC50 Data Qpatch Pulse = 15” value was “poor fit”. Turning to `COc1ccccc1-c1nc(C2CC(C)(C)OC(C)(C)C2)cn1S(=O)(=O)C1CC1` [Cpd 95, 1-(Cyclopropylsulfonyl)-2-(2-methoxyphenyl)-4-(2,2,6,6-tetramethyltetrahydro-2H-pyran-4-yl)-1H-imidazole], on human N-type Ca channel [1], the concentration for half-maximal inhibition (IC50) is at least 10 µM. In the case of `COc1ccccc1-c1nc(C2CC(C)(C)OC(C)(C)C2)cn1S(=O)(=O)CC(C)C` [Cpd 96, 2-(2-Methoxyphenyl)-1-[(2-methylpropyl)sulfonyl]-4-(2,2,6,6-tetramethyltetrahydro-2H-pyran-4-yl)-1H-imidazole], the IC50 against human N-type Ca channel [2] was at least 10 µM. Regarding `COc1ccccc1-c1nc(C2CC(C)(C)OC(C)(C)C2)cn1Cc1cncnc1` [Cpd 100, 5-{[2-(2-Methoxyphenyl)-4-(2,2,6,6-tetramethyltetrahydro-2H-pyran-4-yl)-1H-imidazol-1-yl]methyl}pyrimidine], the IC50 on human N-type Ca channel [1], against human N-type Ca channel [2] (setting [5]) and against human N-type Ca channel [2] (setting [6]) was at least 10 µM in each case.

On to `COc1ccccc1-c1nc(C2(O)CC(C)(C)OC(C)(C)C2)cn1-c1ccc(F)c(Br)c1` [Cpd 106, 4-[1-(3-Bromo-4-fluorophenyl)-2-(2-methoxyphenyl)-1H-imidazol-4-yl]-2,2,6,6-tetramethyltetrahydro-2H-pyran-4-ol], for which the half-inhibitory concentration (IC50) at human N-type Ca channel [1] was 0.148 µM; against human N-type Ca channel [2] (setting [6]), 5.03 µM. On human N-type Ca channel [2] (setting [3]), the inhibition at 10 µM came to 71%. Turning to `COc1ncccc1-c1nc(C2(O)CC(C)(C)OC(C)(C)C2)cn1-c1ccc(F)c(C#N)c1` [Cpd 116, 2-Fluoro-5-[4-(4-hydroxy-2,2,6,6-tetramethyltetrahydro-2H-pyran-4-yl)-2-(2-methoxypyridin-3-yl)-1H-imidazol-1-yl]benzonitrile], the IC50 on human N-type Ca channel [1] was 1.37 µM; at human N-type Ca channel [2] (N Type IC50 Data Qpatch Pulse = 1, Pulse = 1, concentration range 0.01-1 μM), over 1 µM; on human N-type Ca channel [2] (N Type IC50 Data Qpatch Pulse = 15, Pulse = 15, concentration range 0.01-1 μM) it was over 1 µM. In the case of `COc1ccccc1-c1nc(C2(O)CC(C)(C)OC(C)(C)C2)cn1-c1ccc(C#N)c(F)c1` [Cpd 118, 2-Fluoro-4-[4-(4-hydroxy-2,2,6,6-tetramethyltetrahydro-2H-pyran-4-yl)-2-(2-methoxyphenyl)-1H-imidazol-1-yl]benzonitrile], the IC50 against human N-type Ca channel [2] (setting [6]) is at least 10 µM.

In the case of `COc1ccccc1-c1nc(C2CC(C)(C)OC(C)(C)C2)cn1-c1ccc(C#N)c(C(F)(F)F)c1` [Cpd 121, 4-[2-(2-Methoxyphenyl)-4-(2,2,6,6-tetramethyltetrahydro-2H-pyran-4-yl)-1H-imidazol-1-yl]-2-(trifluoromethyl)benzonitrile], the IC50 at human N-type Ca channel [1] came out at 0.233 µM; against human N-type Ca channel [2] (setting [5]), 6.6 µM; on human N-type Ca channel [2] (setting [6]), 3.3 µM.

Take `COc1ccccc1-c1nc(C2=CC(C)(C)OC(C)(C)C2)cn1-c1ccc(C#N)c(F)c1` [Cpd 126, 2-Fluoro-4-[2-(2-methoxyphenyl)-4-(2,2,6,6-tetramethyl-3,6-dihydro-2H-pyran-4-yl)-1H-imidazol-1-yl]benzonitrile]: the IC50 came to 0.234 µM at human N-type Ca channel [1] and 1.9 µM at human N-type Ca channel [2] (setting [6]).
